Measurements: patent US8993594B2, “Isoquinolin-1(2H)-one derivatives as PARP-1 inhibitors” (Nerviano Medical Sciences S.R.L., priority 2009, dated 2015)
Structures can show the parent of a compound that is named as a salt. Where two headings read alike, the source gives them in different places.

Assays:
[1] = tested on: ovarian cancer patients with confirmed BRCA-1 mutations; settings: preliminary phase I data; cited from earlier work
[2] = tested on: hydrogen peroxide induced PAR formation in HeLa cells; assay: Cellular PAR assay (inhibition of hydrogen peroxide induced PAR formation); format: cell-based; settings: Homo sapiens, 0.1 mM hydrogen peroxide 15 min
Procedure: Compounds potencies were evaluated by measuring the inhibition of poly (ADP-ribose) (PAR) chains formation as a marker for PARP-1 inhibition.
Cellular activity of PARP-1 inhibitors was assessed by measuring the inhibition of the hydrogen peroxide induced PAR formation in HeLa cells (ECACC). Cellular PAR levels were measured by immunocytochemistry and quantified using an ArrayScan vTi instrument (Cellomics Thermo Scientific).
Studies were performed as follows: 6000 cells/well were seeded in 96 well plates (Perkin Elmer) in MEM/10% FCS and incubated for 24 hours at 37° C., 5% carbon dioxide. Test compounds were then added at the required concentration for 30′. […] Concentration curves were prepared in MEM/10% FCS from compound stocks in DMSO and final DMSO concentration was 0.002% (v/v). Duplicate wells for each concentration point were prepared with a typical highest compound concentration of 20 μM and serial dilution 1:3. […] Non-specific binding sites were blocked by incubating wells for 30 min in PBS containing 5% (w/v) FBS 0.05% tween20. […] After washing further 3 times in PBS, cellular PAR immunoreactivity was assessed using the ArrayScan vTi instrument, with a Zeiss 10×0.5 N.A. objective, and applying the Cytotoxicity.V3 algorithm (Cellomics/Thermo Fisher) with a XF100 filter. At least 10 fields, corresponding to at least 900 cells, were read for each well.
The following formula is used: IC50=Bottom+(Top−Bottom)/(1+10^((Log EC50−X))); X is the logarithm of concentration. IC50 is the response; IC50 starts at Bottom and goes to Top with a sigmoid shape.

[3] = target: T1, PARP-3 FL (Homo sapiens, UniProt Q9Y6F1); assay: Fluorescence polarization probe displacement assay; format: binding; settings: compound P1 as the probe
T1 sequence (Q9Y6F1 1-533): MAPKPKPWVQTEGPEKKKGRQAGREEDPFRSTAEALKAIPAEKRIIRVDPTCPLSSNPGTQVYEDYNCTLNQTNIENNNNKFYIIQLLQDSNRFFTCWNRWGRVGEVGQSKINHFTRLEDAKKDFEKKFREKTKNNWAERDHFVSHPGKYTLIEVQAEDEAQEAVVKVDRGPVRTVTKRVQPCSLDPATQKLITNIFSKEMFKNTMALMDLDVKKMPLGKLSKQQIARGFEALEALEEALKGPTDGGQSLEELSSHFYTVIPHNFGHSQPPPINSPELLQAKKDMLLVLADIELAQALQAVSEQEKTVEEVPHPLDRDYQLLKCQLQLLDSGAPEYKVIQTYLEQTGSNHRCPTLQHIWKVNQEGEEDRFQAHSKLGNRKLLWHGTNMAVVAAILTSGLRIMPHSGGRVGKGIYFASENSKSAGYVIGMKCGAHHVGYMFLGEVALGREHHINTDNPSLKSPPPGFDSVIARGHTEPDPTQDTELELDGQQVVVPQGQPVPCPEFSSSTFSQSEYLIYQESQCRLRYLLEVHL
Procedure: (§1) Affinity of the tested compounds and their selectivity with respect to the different PARP isoforms of interest was quantified in a displacement assay.
(§2) In all of the experiments, the polarization signal was measured using a Saphire2 plate reader (Tecan). Data analysis was performed using Dynafit software. In particular, titration data were fitted to the following equilibria: Enzyme+probe <==> Complex Enzyme-probe, while displacement data were fitted to the following equilibria: Enzyme+probe <==> Complex Enzyme-probe, Enzyme+Compound <==> Complex Enzyme-Compound, whereby binding of probe and compound on the enzyme are mutually exclusive (pure competitive mechanism). Displacement data were also fitted using Excel spreadsheet (Microsoft Inc. Seattle, USA) to a four parameter logistic model (4PL), or Hill-Slope model to calculate DC50s where the DC50 value represents the compound concentration at which the polarization signal is diminished by 50% compared to untreated controls.
(§3) In agreement, affinity binding constants (KD) were determined by fitting with a pure competitive mechanism. KD values are the average of three independent experiments.

[4] = target: PARP-1 FL (Homo sapiens, UniProt P09874); assay: Fluorescence polarization probe displacement assay; format: binding; settings: for DC50: half maximal displacement concentration
Sequence of PARP-1 FL (P09874 whole entry): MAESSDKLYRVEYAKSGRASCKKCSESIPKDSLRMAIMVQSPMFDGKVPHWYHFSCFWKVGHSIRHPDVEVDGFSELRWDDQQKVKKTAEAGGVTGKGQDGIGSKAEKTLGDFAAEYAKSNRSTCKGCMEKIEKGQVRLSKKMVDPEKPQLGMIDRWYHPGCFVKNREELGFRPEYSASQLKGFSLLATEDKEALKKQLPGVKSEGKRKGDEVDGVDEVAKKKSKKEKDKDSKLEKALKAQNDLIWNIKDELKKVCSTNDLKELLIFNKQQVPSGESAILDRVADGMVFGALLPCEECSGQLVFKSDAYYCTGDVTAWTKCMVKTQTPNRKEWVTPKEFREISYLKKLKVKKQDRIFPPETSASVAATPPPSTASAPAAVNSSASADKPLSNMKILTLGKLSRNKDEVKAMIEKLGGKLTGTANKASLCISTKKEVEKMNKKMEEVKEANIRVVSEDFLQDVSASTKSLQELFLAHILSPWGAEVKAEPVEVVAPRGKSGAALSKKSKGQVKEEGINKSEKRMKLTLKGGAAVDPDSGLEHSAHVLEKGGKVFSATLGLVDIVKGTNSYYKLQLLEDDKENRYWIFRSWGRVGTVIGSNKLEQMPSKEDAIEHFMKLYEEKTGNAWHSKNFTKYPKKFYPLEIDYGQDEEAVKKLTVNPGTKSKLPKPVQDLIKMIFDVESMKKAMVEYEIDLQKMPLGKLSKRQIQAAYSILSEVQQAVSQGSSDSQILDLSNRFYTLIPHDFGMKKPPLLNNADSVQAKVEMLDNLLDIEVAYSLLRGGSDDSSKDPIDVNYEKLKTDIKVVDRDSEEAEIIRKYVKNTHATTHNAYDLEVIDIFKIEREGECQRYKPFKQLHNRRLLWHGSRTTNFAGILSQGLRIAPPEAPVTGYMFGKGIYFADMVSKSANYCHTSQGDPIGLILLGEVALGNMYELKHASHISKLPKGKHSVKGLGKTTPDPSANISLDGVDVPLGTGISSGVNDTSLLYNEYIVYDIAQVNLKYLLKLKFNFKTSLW
Procedure: as §1, §2, §3

[5] = Pharmacokinetics and oral bioavailability in the mouse; format: in vivo; settings: for F on AUC: 10 mg/kg, ratio of oral to IV dose-normalized plasma AUC; for clearance / Vd / AUC / half-life: male, Balb Nu/Nu, plasma, mean value; for clearance / Vd: 10 mg/kg intravenous bolus; for clearance: read-out: CL(IV bolus); for Vd: read-out: Vdss (IV bolus); for AUC / half-life: 10 mg/kg oral; for half-life: read-out: T½ (oral) (converted)
Procedure: The compounds were formulated in 10% tween 80/dextrose for intravenous bolus administration while oral administrations were performed using the compounds formulated in 0.5% methylcellulose. A single administration at the dose of 10 mg/kg was given and three male animals for each route were used. […] Plasma samples were prepared by plasma proteins precipitation adding 200 µl of methanol to 10 µl of plasma in a 96 well plate. […] The supernatant was considered as final extract and injected onto the LC-MS-MS system (HPLC system: Hewlett Packard 1100 series using Atlantis HILIC Silica 50*2.1 mm 5.0 μM analytical column; MS instrument: Perkin Elmer SCIEX API 2000 and ionization performed with Turbo Ion Spray in positive ion mode). Lower limit of quantification is 5.0 ng/ml, upper limit of quantification is 10000 ng/ml. […] Non-compartmental method (linear trapezoidal rule and linear regression analysis of natural log-transformed plasma concentrations vs. time data) was used. After intravenous dosing, C0 was set equal to C0.083, Absolute bioavailability (F) was calculated from the ratio of average oral to IV (intravenous) dose-normalized plasma AUC (area under curve) values.

[6] = tested on: Capan-1 human pancreatic cancer tumors; assay: In vivo efficacy as single agent, Capan-1 BRCA-2 mutated mouse model; settings: oral; for Toxicity: body weight reduction and survival
From the text: Each group included seven animals. The treatment started one day after randomization.

[7] = target: PARP-2 FL (Homo sapiens, UniProt Q9UGN5); assay: Fluorescence polarization probe displacement assay; format: binding; settings: for DC50: compound P1 as the probe
Sequence of PARP-2 FL (Q9UGN5 whole entry): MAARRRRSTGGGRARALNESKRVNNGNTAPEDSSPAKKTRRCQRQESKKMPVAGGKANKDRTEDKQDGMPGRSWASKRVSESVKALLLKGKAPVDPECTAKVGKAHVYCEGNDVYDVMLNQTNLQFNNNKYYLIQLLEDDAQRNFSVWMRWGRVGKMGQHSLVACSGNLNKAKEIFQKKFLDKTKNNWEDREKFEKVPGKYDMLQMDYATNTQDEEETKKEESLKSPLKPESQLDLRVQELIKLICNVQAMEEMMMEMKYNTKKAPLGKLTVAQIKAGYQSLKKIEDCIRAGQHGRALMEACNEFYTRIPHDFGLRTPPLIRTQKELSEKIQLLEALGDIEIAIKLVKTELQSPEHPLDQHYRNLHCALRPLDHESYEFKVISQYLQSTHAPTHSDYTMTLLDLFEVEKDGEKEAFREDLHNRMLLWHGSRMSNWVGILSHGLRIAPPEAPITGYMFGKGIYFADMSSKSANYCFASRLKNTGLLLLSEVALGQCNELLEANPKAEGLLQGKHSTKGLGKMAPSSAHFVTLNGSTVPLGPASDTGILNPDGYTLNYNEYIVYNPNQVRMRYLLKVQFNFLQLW
Procedure: as §1, §2, §3

[8] = tested on: Capan-1 human pancreatic cancer tumors; settings: for T − C: delay to reach 1 g
From the text: Balb, athymic Nu/Nu male mice, from Harlan (Italy), were maintained in agreement with the European Communities Council Directive no. 86/609/EEC concerning the protection of animals used for experimental or other scientific purposes, in cages with paper filter cover, food and bedding sterilized and acidified water. Fragments of Capan-1 human pancreatic cancer tumors were implanted subcutaneously. Mice bearing a palpable tumor (100-200 mm^3) were selected and randomized into control and treated groups. Each group included seven animals. The treatment started one day after randomization. Compound of formula (I) was administered by oral route as a methocel suspension at the doses of 100 mg/kg daily or twice a day for the indicated times.
Compound (39) was administered by oral route at the dose of 100 mg/kg twice a day for ten consecutive days (days 1 to 10). […] Tumor growth and body weight were measured every 3 days. Tumor growth was assessed by caliper. The two diameters were recorded and the tumor weight was calculated according to the following formula: length (mm)×width^2/2. […] This delay (T−C value) was defined as the difference of time (in days) required for the treatment group (T) and the control group (C) tumors to reach a predetermined size (1 g). Toxicity was evaluated on the basis of body weight reduction and animal survival rate.

[9] = 150 mg/kg, days 1-14 twice a day
[10] = 100 mg/kg, days 1-20 once a day
[11] = 100 mg/kg, days 1-10 twice a day
[12] = Compound (39) alone, oral 100 mg/kg twice a day, days 1 to 10
[13] = temozolomide alone, oral 50 mg/kg once a day, days 3, 4, 5, 6 and 7

O=C(c1cc(Cc2n[nH]c(=O)c3ccccc23)ccc1F)N1CCN(C(=O)C2CC2)CC1 [AZD2281]
Partial responses [1]: 4 out of 10

COc1cccc(-c2[nH]c(=O)c3ccccc3c2OCCN)c1.Cl [Compound 11, 4-(2-Amino-ethoxy)-3-(3-methoxy-phenyl)-2H-isoquinolin-1-one hydrochloride]
IC50 [2]: 0.18 µM | DC50 [3]: 0.35 µM | Kd [4]: < 0.03 µM | DC50 [4]: < 0.25 µM | F on AUC [5]: 64% | clearance [5]: 120 mL/min/kg | Vd [5]: 2.6 L/kg | AUC [5]: 2.94 µM·h | half-life [5]: 1.01 h | Max TGI (%) [6, 9]: 31% | Toxicity [6, 9]: 0/7

COc1ccc(-c2[nH]c(=O)c3ccccc3c2OCCN)cc1.Cl [Compound 24, 4-(2-Amino-ethoxy)-3-(4-methoxy-phenyl)-2H-isoquinolin-1-one hydrochloride]
IC50 [2]: 0.06 µM | DC50 [3]: 0.37 µM | Kd [4]: < 0.03 µM | DC50 [4]: 0.32 µM | F on AUC [5]: 50% | clearance [5]: 41.1 mL/min/kg | Vd [5]: 3 L/kg | AUC [5]: 6.97 µM·h | half-life [5]: 2.71 h

COc1ccc(-c2[nH]c(=O)c3cc(F)ccc3c2OCCN)cc1.Cl [Compound 25, 4-(2-Amino-ethoxy)-7-fluoro-3-(4-methoxy-phenyl)-2H-isoquinolin-1-one hydrochloride]
IC50 [2]: 0.06 µM | DC50 [3]: 0.21 µM | Kd [7]: 0.61 µM | DC50 [7]: 2.29 µM | Kd [4]: < 0.01 µM | DC50 [4]: < 0.25 µM | F on AUC [5]: 71% | clearance [5]: 42.2 mL/min/kg | Vd [5]: 2.3 L/kg | AUC [5]: 8.32 µM·h | half-life [5]: 2.17 h | Max TGI (%) [6, 10]: 18% | Toxicity [6, 10]: 0/7

O=c1[nH]c(-c2cccc(O)c2)c(OCCCN2CCCCC2)c2ccccc12 [Compound 33, 3-(3-Hydroxy-phenyl)-4-(3-piperidin-1-yl-propoxy)-2H-isoquinolin-1-one]
IC50 [2]: 0.41 µM | DC50 [3]: 0.34 µM | Kd [7]: 0.25 µM | DC50 [7]: 0.58 µM | Kd [4]: < 0.03 µM | DC50 [4]: < 0.25 µM | F on AUC [5]: 24% | clearance [5]: 176 mL/min/kg | Vd [5]: 2.9 L/kg | AUC [5]: 0.64 µM·h | half-life [5]: 1.11 h

Cl.NCCOc1c(-c2ccccc2)[nH]c(=O)c2cc(F)ccc12 [Compound 39, 4-(2-Amino-ethoxy)-7-fluoro-3-phenyl-2H-isoquinolin-1-one hydrochloride]
IC50 [2]: 0.06 µM | DC50 [3]: 0.28 µM | Kd [7]: 4.38 µM | DC50 [7]: 3.32 µM | Kd [4]: < 0.01 µM | DC50 [4]: < 0.25 µM | F on AUC [5]: 72% | clearance [5]: 37.9 mL/min/kg | Vd [5]: 1.7 L/kg | AUC [5]: 11 µM·h | half-life [5]: 1.06 h | Max TGI (%) [6, 11]: 48% | Toxicity [6, 11]: 0/7 | Toxicity [8, 12]: 0/7 | T − C [8, 12]: 3 days | Interaction of the combination (T−C versus addition of single treatments) ([8]; compound (39) combined with temozolomide): strong synergism

Cl.NCCOc1c(-c2cccc(Cl)c2)[nH]c(=O)c2ccccc12 [Compound 48, 4-(2-Amino-ethoxy)-3-(3-chloro-phenyl)-2H-isoquinolin-1-one hydrochloride]
IC50 [2]: 0.11 µM | DC50 [3]: 0.33 µM | Kd [7]: 0.51 µM | DC50 [7]: 1.16 µM | Kd [4]: < 0.01 µM | DC50 [4]: < 0.25 µM | F on AUC [5]: 27% | clearance [5]: 59.9 mL/min/kg | Vd [5]: 4.1 L/kg | AUC [5]: 2.39 µM·h | half-life [5]: 1.11 h

Cc1cccc2c(=O)[nH]c(-c3ccccc3)c(OCCN)c12 [Compound 49, 4-(2-Amino-ethoxy)-5-methyl-3-phenyl-2H-isoquinolin-1-one hydrochloride]
IC50 [2]: 0.09 µM | DC50 [3]: 0.2 µM | DC50 [7]: 0.97 µM | Kd [4]: < 0.01 µM | DC50 [4]: < 0.25 µM

NCCOc1c(-c2cccc(Cl)c2)[nH]c(=O)c2cc(F)ccc12 [Compound 50, 4-(2-Amino-ethoxy)-3-(3-chloro-phenyl)-7-fluoro-2H-isoquinolin-1-one hydrochloride]
IC50 [2]: 0.08 µM | DC50 [3]: 0.33 µM | DC50 [7]: 3.3 µM | Kd [4]: < 0.03 µM | DC50 [4]: < 0.25 µM

CN(C)CCOc1c(-c2ccccc2)[nH]c(=O)c2cc(F)ccc12 [Compound 84, 4-[2-(dimethylamino)ethoxy]-7-fluoro-3-phenylisoquinolin-1(2H)-one]
IC50 [2]: 0.57 µM | DC50 [3]: 1.11 µM | DC50 [7]: 3.86 µM | DC50 [4]: < 0.25 µM

NCCCOc1c(-c2ccccc2)[nH]c(=O)c2cc(F)ccc12 [Compound 86, 4-(3-aminopropoxy)-7-fluoro-3-phenylisoquinolin-1(2H)-one hydrochloride]
IC50 [2]: 0.54 µM | DC50 [3]: 0.33 µM | DC50 [7]: 4.72 µM | DC50 [4]: < 0.25 µM

O=c1[nH]c(-c2ccccc2)c(OCCCNCc2ccccc2)c2ccc(F)cc12 [Compound 87, 4-[3-(benzylamino)propoxy]-7-fluoro-3-phenylisoquinolin-1(2H)-one]
IC50 [2]: 0.4 µM | DC50 [3]: 1.11 µM | DC50 [7]: > 10 µM | DC50 [4]: < 0.25 µM

CCN(CC)CCOc1c(-c2ccccc2)[nH]c(=O)c2cc(F)ccc12 [Compound 88, 4-[2-(diethylamino)ethoxy]-7-fluoro-3-phenylisoquinolin-1(2H)-one trifluoroacetate]
IC50 [2]: 3.44 µM | DC50 [3]: > 10 µM | DC50 [7]: 5.85 µM | DC50 [4]: 1.59 µM

CN1CCN(CCOc2c(-c3ccccc3)[nH]c(=O)c3cc(F)ccc23)CC1 [Compound 89, 7-fluoro-4-[2-(4-methylpiperazin-1-yl)ethoxy]-3-phenylisoquinolin-1(2H)-one trifluoroacetate]
IC50 [2]: 7.55 µM | DC50 [3]: 6.45 µM | DC50 [7]: > 10 µM | DC50 [4]: 0.4 µM

Cn1nnc2c(C(N)=O)ncn2c1=O [temozolomide, reference compound]
Toxicity [8, 13]: 0/7 | T − C [8, 13]: 3 days
